Patent US20210186960A1, “MODULATORS OF INDOLEAMINE 2,3-DIOXYGENASE” (GLAXOSMITHKLINE INTELLECTUAL PROPERTY DEVELOPMENT LIMITED, priority 2017, published 2021)
“And” between values parts separate entries of the source, which are not always exact repeats. Equal entries are not always repeated. Where two headings read alike, the source gives them in different places.

Tests used:
[1] = test system: human peripheral blood mononuclear cells (PBMC); experiment: PBMC cytotoxicity assay (CellTiter-Glo); type: cell-based; settings: pCC50, CellTiter-Glo, stimulated human PBMC, 2 days
Description: Compounds of the present invention were tested via high-throughput cellular assays utilizing detection of kynurenine via mass spectrometry and cytotoxicity as end-points. For the mass spectrometry and cytotoxicity assays, human peripheral blood mononuclear cells (PBMC) (PB003F; AllCells®, Alameda, Calif.) were stimulated with human interferon-γ (IFN-γ) (Sigma-Aldrich Corporation, St. Louis, Mo.) and lipopolysaccharide from Salmonella minnesota (LPS) (Invivogen, San Diego, Calif.) to induce the expression of indoleamine 2, 3-dioxygenase (IDO1). Compounds with IDO1 inhibitory properties decreased the amount of kynurenine produced by the cells via the tryptophan catabolic pathway. Cellular toxicity due to the effect of compound treatment was measured using CellTiter-Glo® reagent (CTG) (Promega Corporation, Madison, Wis.), which is based on luminescent detection of ATP, an indicator of metabolically active cells.
In preparation for the assays, test compounds were serially diluted 3-fold in
DMSO from a typical top concentration of 1 mM or 5 mM and plated at 0.5 μL in 384-well, polystyrene, clear bottom, tissue culture treated plates with lids (Greiner Bio-One, Kremsmünster, Austria) to generate 11-point dose response curves. Low control wells (0% kynurenine or 100% cytotoxicity) contained either 0.5 μL of DMSO in the presence of unstimulated (−IFN-γ/−LPS) PBMCs for the mass spectrometry assay or 0.5 μL of DMSO in the absence of cells for the cytotoxicity assay, and high control wells (100% kynurenine or 0% cytotoxicity) contained 0.5 μL of DMSO in the presence of stimulated (+IFN-γ/+LPS) PBMCs for both the mass spectrometry and cytotoxicity assays.
Frozen stocks of PBMCs were washed and recovered in RPMI 1640 medium (Thermo Fisher Scientific, Inc., Waltham, Mass.) supplemented with 10% v/v heat-inactivated fetal bovine serum (FBS) (Thermo Fisher Scientific, Inc., Waltham, Mass.), and 1× penicillin-streptomycin antibiotic solution (Thermo Fisher Scientific, Inc., Waltham, Mass.). The cells were diluted to 1,000,000 cells/mL in the supplemented RPMI 1640 medium. 50 μL of either the cell suspension, for the mass spectrometry assay, or medium alone, for the cytotoxicity assay, were added to the low control wells, on the previously prepared 384-well compound plates, resulting in 50,000 cells/well or 0 cells/well respectively. IFN- y and LPS were added to the remaining cell suspension at final concentrations of 100 ng/ml and 50 ng/ml respectively, and 50 μL of the stimulated cells were added to all remaining wells on the 384-well compound plates. The plates, with lids, were then placed in a 37 °C, 5% CO2 humidified incubator for 2 days.
Following incubation, the 384-well plates were removed from the incubator and allowed to equilibrate to room temperature for 30 minutes. For the cytotoxicity assay, CellTiter-Glo® was prepared according to the manufacturer's instructions, and 40 μL were added to each plate well. After a twenty minute incubation at room temperature, luminescence was read on an EnVision® Multilabel Reader (Perkin Elmer Inc., Waltham, Mass.). For the mass spectrometry assay, 10 μL of supernatant from each well of the compound-treated plates were added to 40 μL of acetonitrile, containing 10 μM of an internal standard for normalization, in 384-well, polypropylene, V-bottom plates (Greiner Bio-One, Kremsmunster, Austria) to extract the organic analytes. Following centrifugation at 2000 rpm for 10 minutes, 10 μL from each well of the acetonitrile extraction plates were added to 90 μL of sterile, distilled H2O in 384-well, polypropylene, V-bottom plates for analysis of kynurenine and the internal standard on the RapidFire 300 (Agilent Technologies, Santa Clara, Calif.) and 4000 QTRAP MS (SCIEX, Framingham, Mass.). MS data were integrated using Agilent Technologies' RapidFire Integrator software, and data were normalized for analysis as a ratio of kynurenine to the internal standard. […]

[2] = Rat oral PK studies of prodrugs at 5 mg/kg; type: in vivo; settings: after PO dose of 5 mg/kg example 7 in male Wistar Han rat; analyte as labelled
Description: Rat oral PK studies of prodrugs at 5 mg/kg dose (solution in 100% (40 mg oleic acid+25mg Tween 80+2 mL of PBS/fresh) at 0.5 mg/mL).

[3] = Plasma PK and tissue distribution after oral dosing of prodrug EXAMPLE 7 (5 mg/kg); type: in vivo; settings: PO 5 mg/kg EXAMPLE 7 (prodrug), analyte as labelled
Description: Tissue Distribution of drug intermediate C4 from oral dosing of C4 and of intermediate C4 from oral dosing of example 7 in rats
• Wistar Han rat, 185-197 g, male, N=8, purchased from Beijing Vital River Co. LTD. Qualification No.: SCXK(J) 2016-0011 11400700240027. Fasted overnight and fed 4 hr post dose. PO: 5 mg/kg (10 mL/kg) via oral gavage(N=8). Sampling at 1, 4, 8 and 24 hr , 4 time points, terminal bleeding for plasma, liver, lymph nodes and spleen collected at each time point

[4] = male Wistar Han rat, 1 hr, 5 mg/kg
[5] = male Wistar Han rat, 4 hr, 5 mg/kg

CC(C)CN(c1ccc([C@H](C)CC(=O)O)cc1Nc1cnc(Cl)cn1)C1CCOCC1 [intermediate C4]
PBMC TOX PXC50 [1]: <5 | DNAUC0_20 [2]: 126.6 ng·h/mL | Lymph node to plasma ratio individual [3, 4]: 2.99 | Spleen to plasma ratio individual [3, 4]: 0.677 | lymph node Concentration individual [3, 4]: 685 ng/g | plasma Concentration individual [3, 4]: 229 ng/mL | spleen Concentration individual [3, 4]: 155 ng/g | Lymph node to plasma ratio individual [3, 5]: 2.15 | Spleen to plasma ratio individual [3, 5]: 0.260 | lymph node Concentration individual [3, 5]: 63.1 ng/g | spleen Concentration individual [3, 5]: 23.1 ng/g and 7.65 ng/g | spleen Concentration Mean ([3]; male Wistar Han rat, 8 hr): BQL | spleen Concentration individual ([3]; male Wistar Han rat, 8 hr): BQL | lymph node Concentration individual ([3]; male Wistar Han rat, 8 hr, 5 mg/kg): 16.3 ng/g and 6.17 ng/g | liver Concentration Mean ([3]; male Wistar Han rat, 24 hr): BQL | liver Concentration individual ([3]; male Wistar Han rat, 24 hr): BQL | lymph node Concentration Mean ([3]; male Wistar Han rat, 24 hr): BQL | lymph node Concentration individual ([3]; male Wistar Han rat, 24 hr): BQL | plasma Concentration Mean ([3]; male Wistar Han rat, 24 hr): BQL | plasma Concentration individual ([3]; male Wistar Han rat, 24 hr): BQL | spleen Concentration Mean ([3]; male Wistar Han rat, 24 hr): BQL | spleen Concentration individual ([3]; male Wistar Han rat, 24 hr): BQL | AUC(0-t) ([3]; lymph node, male Wistar Han rat, read-out: AUClast (lymph node)): 1890 ng·h/mL | concentration at 1 h ([3]; male, Wistar Han, rat, lymph node, po, 5 mg/kg, 1 hr, read-out: lymph node Concentration Mean): 807 ng/g | concentration at 1 h ([3]; male, Wistar Han, rat, lymph node, po, 5 mg/kg, 1 hr, read-out: lymph node Concentration individual): 928 ng/g | concentration at 4 h ([3]; male, Wistar Han, rat, lymph node, po, 5 mg/kg, 4 hr, read-out: lymph node Concentration Mean): 73.8 ng/g | concentration at 4 h ([3]; male, Wistar Han, rat, lymph node, po, 5 mg/kg, 4 hr, read-out: lymph node Concentration individual): 84.4 ng/g | concentration at 8 h ([3]; male, Wistar Han, rat, lymph node, po, 5 mg/kg, 8 hr): 11.2 ng/g | Kp at 1 h ([3]; male, Wistar Han, rat, lymph node/plasma, po, 5 mg/kg, 1 hr, read-out: Lymph node to plasma ratio Mean): 3.86 | Kp at 1 h ([3]; male, Wistar Han, rat, lymph node/plasma, po, 5 mg/kg, 1 hr, read-out: Lymph node to plasma ratio individual): 4.73 | Kp at 4 h ([3]; male, Wistar Han, rat, lymph node/plasma, po, 5 mg/kg, 4 hr, read-out: Lymph node to plasma ratio Mean): 1.66 | Kp at 4 h ([3]; male, Wistar Han, rat, lymph node/plasma, po, 5 mg/kg, 4 hr, read-out: Lymph node to plasma ratio individual): 1.16 | Kp at 8 h ([3]; male, Wistar Han, rat, lymph node/plasma, po, 5 mg/kg, 8 hr, read-out: Lymph node to plasma ratio Mean): 0.994 | Kp at 8 h ([3]; male, Wistar Han, rat, lymph node/plasma, po, 5 mg/kg, 8 hr, read-out: Lymph node to plasma ratio individual): 0.994 | Kp ([3]; male, Wistar Han, rat, lymph node/plasma, po, 5 mg/kg, read-out: AUClimphnode/AUCplasma): 2.99 | concentration at 1 h ([3]; male, Wistar Han, rat, plasma, po, 5 mg/kg, 1 hr, read-out: plasma Concentration Mean): 213 ng/mL | concentration at 1 h ([3]; male, Wistar Han, rat, plasma, po, 5 mg/kg, 1 hr, read-out: plasma Concentration individual): 196 ng/mL | concentration at 1 h ([3]; male, Wistar Han, rat, spleen, po, 5 mg/kg, 1 hr, read-out: spleen Concentration Mean): 165 ng/g | concentration at 1 h ([3]; male, Wistar Han, rat, spleen, po, 5 mg/kg, 1 hr, read-out: spleen Concentration individual): 175 ng/g | concentration at 4 h ([3]; male, Wistar Han, rat, spleen, po, 5 mg/kg, 4 hr, read-out: spleen Concentration Mean): 15.4 ng/g | Kp at 1 h ([3]; male, Wistar Han, rat, spleen/plasma, po, 5 mg/kg, 1 hr, read-out: Spleen to plasma ratio Mean): 0.785 | Kp at 1 h ([3]; male, Wistar Han, rat, spleen/plasma, po, 5 mg/kg, 1 hr, read-out: Spleen to plasma ratio individual): 0.893 | Kp at 4 h ([3]; male, Wistar Han, rat, spleen/plasma, po, 5 mg/kg, 4 hr, read-out: Spleen to plasma ratio Mean): 0.289 | Kp at 4 h ([3]; male, Wistar Han, rat, spleen/plasma, po, 5 mg/kg, 4 hr, read-out: Spleen to plasma ratio individual): 0.319 | Kp ([3]; male, Wistar Han, rat, spleen/plasma, po, 5 mg/kg, read-out: AUCspleen/AUCplasma): 0.558 | AUC(0-t) ([3]; spleen, male Wistar Han rat, read-out: AUClast (spleen)): 353 ng·h/mL
